Laboratory results published in patent publication US20090029949A1, “GPCR Ligands Identified by Computational Modeling” (priority 2006, published 2009).
Read-outs that look alike come from different tables or passages of the source.

Columns and labels:
[1] = Ligand-induced [35S]GTPγS binding, empty vector; format: biochemical; conditions: S1P-induced, empty vector in RH7777 cells
Description: (§1) RH7777 and HEK-293 cells (ATCC, Manassas, Va.) were maintained in Dulbecco's modified minimal essential medium (DMEM) containing 10% fetal bovine serum (Hyclone, Logan, Utah). Cells (2×10^6) were transfected with 2 μg of plasmid DNA with Effectene (Qiagen, Valencia, Calif.) according to the manufacturer's instructions, for 24 h. Before ligand binding and receptor activation assays, the cells were washed twice with serum-free DMEM and serum-starved for at least 6 h.
(§2) S1P1 Receptor Activation Assays Receptor functional assays were performed in transiently transfected RH7777 cells by measuring S1P-activated [^35S]GTPγS binding as previously described (28).

[2] = biological target: T1, S1P1 mutant T5.49S (Homo sapiens, UniProt P21453, T211S); experiment: [35S]GTPγS binding, S1P1 T5.49S; format: biochemical; conditions: S1P-induced, S1P1 T5.49S in RH7777 cells
T1 construct: expressed in transfected cells; host or cells: RH7777 (transient, pcDNA3.1)
Description: as §1, §2

[3] = biological target: T2, S1P1 mutant L3.36G (Homo sapiens, UniProt P21453, L128G); experiment: [35S]GTPγS binding, S1P1 L3.36G; format: biochemical; conditions: S1P-induced, S1P1 L3.36G in RH7777 cells
T2 construct: expressed in transfected cells; host or cells: RH7777 (transient, pcDNA3.1)
Description: as §1, §2

[4] = biological target: T3, S1P1 mutant V3.40L (Homo sapiens, UniProt P21453, V132L); experiment: [35S]GTPγS binding, S1P1 V3.40L; format: biochemical; conditions: S1P-induced, S1P1 V3.40L in RH7777 cells
T3 construct: expressed in transfected cells; host or cells: RH7777 (transient, pcDNA3.1)
Description: as §1, §2

[5] = biological target: T4, S1P1 mutant V6.37T (Homo sapiens, UniProt P21453, V258T); experiment: [35S]GTPγS binding, S1P1 V6.37T; format: biochemical; conditions: S1P-induced, S1P1 V6.37T in RH7777 cells
T4 construct: expressed in transfected cells; host or cells: RH7777 (transient, pcDNA3.1)
Description: as §1, §2

[6] = biological target: T5, S1P1 mutant F6.44Y (Homo sapiens, UniProt P21453, F265Y); experiment: [35S]GTPγS binding, S1P1 F6.44Y; format: biochemical; conditions: S1P-induced, S1P1 F6.44Y in RH7777 cells
T5 construct: expressed in transfected cells; host or cells: RH7777
Description: as §1, §2

[7] = biological target: T6, S1P1 mutant M3.32G (Homo sapiens, UniProt P21453, M124G); experiment: [35S]GTPγS binding, S1P1 M3.32G; format: biochemical; conditions: S1P-induced, S1P1 M3.32G in RH7777 cells
T6 construct: expressed in transfected cells; host or cells: RH7777
Description: as §1, §2

[8] = biological target: T7, S1P1 double mutant L3.43, 3.44E (Homo sapiens, UniProt P21453, L135E/L136E); experiment: [35S]GTPγS binding, S1P1 L3.43, 3.44E; format: biochemical; conditions: S1P-induced, S1P1 L3.43, 3.44E in RH7777 cells
T7 construct: expressed in transfected cells; host or cells: RH7777
Description: as §1, §2

[9] = biological target: T8, S1P1 mutant L5.52A (Homo sapiens, UniProt P21453, L214A); experiment: [35S]GTPγS binding, S1P1 L5.52A; format: biochemical; conditions: S1P-induced, S1P1 L5.52A in RH7777 cells
T8 construct: expressed in transfected cells; host or cells: RH7777
Description: as §1, §2

[10] = biological target: T9, S1P1 mutant W6.48E (Homo sapiens, UniProt P21453, W269E); experiment: [35S]GTPγS binding, S1P1 W6.48E; format: biochemical; conditions: S1P-induced, S1P1 W6.48E in RH7777 cells
T9 construct: expressed in transfected cells; host or cells: RH7777
Description: as §1, §2

[11] = biological target: T10, S1P1 mutant F5.48G (Homo sapiens, UniProt P21453, F210G); experiment: [32P]S1P radioligand binding, RH7777 cells, F5.48G; conditions: radioligand 50 nM, S1P1 F5.48G
T10 construct: expressed in transfected cells
Description: as §1
(§3) The S1P binding assays were done essentially as previously described (28). Transfected RH7777 cells (5×10^5) were incubated at 4° C. in 20 mM Tris-HCl (pH 7.5) binding buffer containing 100 mM NaCl, 15 mM NaF, protease inhibitor cocktail (Sigma-Aldrich), and 0.2 mg/ml essentially fatty-acid free BSA with 1 nM [^32P]S1P in 50 nM S1P for 40 min. Cells were centrifuged and washed twice in binding buffer. The final pellet was resuspended in 2:1 CHCl3/MeOH and the suspension was equilibrated in scintillation fluid overnight. Cell-bound radioactivity was measured by liquid scintillation counting using a Beckman LS5000 TA counter (Beckman Coulter, Irvine, Calif.). Specific binding was defined as the difference between total binding and non-specific binding (in the presence of 2-5 μM cold S1P). Standard errors were computed on the basis of triplicate samples from two simultaneous transfections.

[12] = biological target: T11, S1P1 mutant V6.40L (Homo sapiens, UniProt P21453, V261L); experiment: [32P]S1P radioligand binding, RH7777 cells, V6.40L; conditions: radioligand 50 nM, S1P1 V6.40L
T11 construct: expressed in transfected cells; host or cells: RH7777
Description: as §1, §3

[13] = biological target: T12, S1P1 mutant W6.48A (Homo sapiens, UniProt P21453, W269A); experiment: [32P]S1P radioligand binding, RH7777 cells, W6.48A; conditions: radioligand 50 nM, S1P1 W6.48A
T12 construct: expressed in transfected cells
Description: as §1, §3

[14] = biological target: T13, WT S1P1 (Homo sapiens, UniProt P21453); experiment: [32P]S1P competition binding, HEK-293 cells, WT-S1P1; conditions: WT-S1P1, HEK-293 cells
Description: For the competition assays, HEK-293 cells were used. Briefly, 4×10^5 cells were plated in 24-well dishes and allowed to adhere overnight. The cells were then transfected with 0.4 μg of the cDNA using Lipofectamine 2000 (Invitrogen) and the transfection proceeded for 48 h. After washing the cells twice with ice-cold binding buffer (20 mM Tris-HCl, pH 7.4 and 150 mM NaCl), 0.1 nM [^32P]S1P and competing concentrations of cold S1P (1 nM-10 μM), resuspended in binding buffer+4% BSA, were applied to the cells and incubated on ice for 30 min. After washing the cells twice with ice-cold binding buffer+0.4% BSA, the cells were lysed with 0.5% SDS and equilibrated in scintillation fluid. The samples were measured in triplicate.

[15] = biological target: T13, WT S1P1; conditions: WT receptor, inventors' system (ref 28); read-out: apparent KD for S1P binding; cited from earlier work
[16] = biological target: T13, WT S1P1; experiment: Ligand-induced [35S]GTPγS binding, WT S1P1; format: biochemical; set-up: expressed in transfected cells; host or cells: RH7777 (transient, pcDNA3.1); conditions: S1P-induced, WT-S1P1 in RH7777 cells
Description: as §1, §2

T13 sequence (P21453 whole entry): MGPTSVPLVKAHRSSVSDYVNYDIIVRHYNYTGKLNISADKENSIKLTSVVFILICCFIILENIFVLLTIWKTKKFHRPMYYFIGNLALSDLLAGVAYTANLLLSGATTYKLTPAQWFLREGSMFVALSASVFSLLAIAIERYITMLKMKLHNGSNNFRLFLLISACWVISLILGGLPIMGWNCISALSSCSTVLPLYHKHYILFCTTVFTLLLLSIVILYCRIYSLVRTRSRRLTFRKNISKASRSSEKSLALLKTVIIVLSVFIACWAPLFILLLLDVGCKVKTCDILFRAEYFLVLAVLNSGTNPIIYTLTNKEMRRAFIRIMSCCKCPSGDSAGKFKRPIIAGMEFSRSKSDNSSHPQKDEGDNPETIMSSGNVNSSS
T9 sequence (P21453 whole entry W269E): as the sequence (P21453 whole entry) above, with W269E counted along it
T4 sequence (P21453 whole entry V258T): as the sequence (P21453 whole entry) above, with V258T counted along it
T5 sequence (P21453 whole entry F265Y): as the sequence (P21453 whole entry) above, with F265Y counted along it
T8 sequence (P21453 whole entry L214A): as the sequence (P21453 whole entry) above, with L214A counted along it
T1 sequence (P21453 whole entry T211S): as the sequence (P21453 whole entry) above, with T211S counted along it
T6 sequence (P21453 whole entry M124G): as the sequence (P21453 whole entry) above, with M124G counted along it
T3 sequence (P21453 whole entry V132L): as the sequence (P21453 whole entry) above, with V132L counted along it
T2 sequence (P21453 whole entry L128G): as the sequence (P21453 whole entry) above, with L128G counted along it
T7 sequence (P21453 whole entry L135E/L136E): as the sequence (P21453 whole entry) above, with L135E, L136E counted along it
T11 sequence (P21453 whole entry V261L): as the sequence (P21453 whole entry) above, with V261L counted along it
T12 sequence (P21453 whole entry W269A): as the sequence (P21453 whole entry) above, with W269A counted along it
T10 sequence (P21453 whole entry F210G): as the sequence (P21453 whole entry) above, with F210G counted along it

Which “% WT Emax + s.d.” value [1] does the source give for `CCCCCCCCCCCCC/C=C/[C@@H](O)[C@@H](N)COP(=O)(O)O` [S1P, Sphingosine 1-phosphate] here?
Its value is “∞”.

And the “EC50 + s.d.” value [1]?
The value was “∞”.

What about the EC50 [2] of the same molecule?
Its EC50 is 6.6 nM.

And the Emax ([2]; read-out: % WT Emax + s.d.)?
The Emax was 168%.

And the EC50 [3]?
Its EC50 is 23 ± 8 nM.

And the Emax ([3]; read-out: % WT Emax + s.d.)?
The Emax was 75%.

What about the EC50 [4] of the same molecule?
Its EC50 is 7 ± 4.5 nM.

And the Emax ([4]; read-out: % WT Emax + s.d.)?
Its Emax is 55%.

What about the EC50 [5] of the same molecule?
Its EC50 is 13 nM.

What about the Emax ([5]; read-out: % WT Emax + s.d.) of the same molecule?
Its Emax is 181%.

And the EC50 [6]?
The EC50 was 3.7 ± 3.3 nM.

And the Emax ([6]; read-out: % WT Emax + s.d.)?
The Emax was 37%.

And the EC50 [7]?
The EC50 was 35 ± 5 nM.

What about the Emax ([7]; read-out: % WT Emax + s.d.) of the same molecule?
The Emax was 77%.

What about the “% WT Emax + s.d.” value [8] of the same molecule?
Its value is “∞”.

What about the “EC50 + s.d.” value [8] of the same molecule?
Its value is “∞”.

What about the “% WT Emax + s.d.” value [9] of the same molecule?
The value was “∞”.

What about the “EC50 + s.d.” value [9] of the same molecule?
Its value is “∞”.

And the “% WT Emax + s.d.” value [10]?
The value was “∞”.

And the “EC50 + s.d.” value [10]?
Its value is “∞”.

What about the “[32P]S1P binding relative to WT” value [11] of the same molecule?
Its value is > 50 % of the WT.

What about the “[32P]S1P binding relative to WT” value [12] of the same molecule?
Its value is > 50 % of the WT.

And the “[32P]S1P binding relative to WT” value [13]?
The value was > 50 % of the WT.

And the Bmax [14]?
The Bmax was 2450 fmol.

What about the Kd ([14]; competition with cold S1P, read-out: KD + s.d.) of the same molecule?
Its Kd is 38.7 nM.

What about the Kd [15] of the same molecule?
Its Kd is 36 ± 2 nM.

And the “% WT Emax + s.d.” value [16]?
Its value is 100 + 9.13 % WT.

What about the EC50 [16] of the same molecule?
Its EC50 is 1.4 ± 0.7 nM.
